Experimental data taken from patent publication US20260262691A1, “USE OF VANILLYL ETHERS TO MODIFY FLAVOR” (Firmenich Incorporated, priority 2023, published 2026).

What was measured:
[1] = Sensory panel rating of bitterness and astringency of liquid pea protein concentrate with vanillyl ethers; assay type: in vivo; conditions: pea protein 3 percent by weight in water, without sugar; vanillyl ether 0.5 ppm; sensory panelists, scale from 0 to 10
Protocol: Liquid pea protein concentrate compositions were prepared (3 percent by weight in water) without sugar added. Control and test samples were prepared. To two test samples vanillyl ethyl ether (VEE) and vanillyl butyl ether (VBE) were added, respectively, at a concentration of 0.5 ppm. The control and test samples were evaluated by sensory panelists to rate the bitterness and astringency of the control sample and the two test samples on a scale from 0 to 10. Table 2 reports the mean difference between the bitterness and astringency scores between the control sample and each of the two test samples.

[2] = Sensory panel rating of characteristics of lemon tea beverage with vanillyl ethers; assay type: in vivo; conditions: lemon tea beverage with Stevia sweetener, VEE 0.5 ppm (phloretin 8 ppm where combined), scale from 0 to 10, higher = more intense
Protocol: Samples of a lemon tea beverage were prepared.
Two test samples were prepared by adding (a) vanillyl ethyl ether (VEE) at a concentration of 0.5 ppm, and (b) vanillyl ethyl ether (VEE) at a concentration of 0.5 ppm and phloretin at a concentration of 8 ppm. The control and test samples were evaluated by sensory panelists to rate various characteristics of the control sample and the two test samples on a scale from 0 to 10.

Row | SMILES | Astringency: mean difference between scores of control sample and test sample [1] | Bitterness: mean difference between scores of control sample and test sample [1] | Off Note Intensity (mean score) ([2]; control 2.9) | Astringency (mean score) ([2]; control 3.0) | Mouthfeel (mean score) ([2]; control 3.1) | Bitterness (mean score) ([2]; control 3.8) | Unfront Sweetness (mean score) ([2]; control 4.5) | Lemon Flavor (mean score) ([2]; control 4.6) | Lingering Sweetness (mean score) ([2]; control 4.9) | Peak Sweetness (mean score) ([2]; control 5.4)
1 | CCCCOCc1ccc(O)c(OC)c1 [VBE, 4-(butoxymethyl)-2-methoxyphenol] | −2.2 | −1.0 | – | – | – | – | – | – | – | –
2 | CCOCc1ccc(O)c(OC)c1 [VEE, 4-(ethoxymethyl)-2-methoxyphenol] | −1.5 | −0.5 | 2.4 | 2.1 | 3.5 | 2.7 | 4.7 | 4.8 | 4.0 | 5.4
